Experimental data taken from ChEMBL document CHEMBL3988442, “University of Dundee, Small-Polar-MMV Screening Library” (2021).

Assays:
[1] = microbe, parasite or virus in culture; details: Mycobacterium tuberculosis, 96 h, read-out: pIC50 (converted)
[2] = microbe, parasite or virus in culture; details: Mycobacterium tuberculosis, 72 h, read-out: pIC50 (converted)

Row | SMILES | IC50 [1] | IC50 [2]
1 | Cc1cnn(C2CN(c3ccccc3S(=O)(=O)C(F)(F)F)C2)c1 | 29.4 µM | 10.2 µM
2 | COCCN(C)C(=O)Nc1cccc(Cl)c1 | 282 µM | > 501 µM
3 | Cn1nnnc1SCCNCc1ccc(Br)cc1 | 289 µM | 280 µM
4 | CNc1nnc(-c2ccccc2)s1 | > 501 µM | > 501 µM
5 | CCCC(=O)N(CCCN1CCOCC1)c1nc2c(C)ccc(Cl)c2s1 | 19.2 µM | 12.8 µM
6 | CC1CC(=O)NCCN1 (configuration not stated) | > 501 µM | > 501 µM
7 | NS(=O)(=O)NCCCc1ccc(Br)cc1F | 218 µM | 151 µM
8 | COc1cccc(S(=O)(=O)CCN(C)CCO)c1 | 352 µM | 109 µM
9 | COc1ccc(CCN)c(O)c1 | 435 µM | 153 µM
10 | c1ccc2c(N3CCNCC3)cncc2c1 | 290 µM | 460 µM
11 | Cc1ccc(CN2CC[C@H](c3nnc(COc4ccc(F)cc4)o3)C2)o1 | 37.2 µM | > 50.1 µM
12 | CN(CCc1nc(-c2cccc(Cl)c2)no1)CCn1cccn1 | 41.6 µM | 4.75 µM
13 | CC(N)CCc1ccc2c(c1)OCO2 (configuration not stated) | 274 µM | 185 µM
14 | CCOC(=O)c1ccc(N2CCC(CCO)CC2)nc1 | 198 µM | 84 µM
15 | CC(C)(C)C(=O)CCN1CCCCC1 | 290 µM | 204 µM
16 | COCCN(Cc1ccsc1)C(=O)CC1CCNC1 (configuration not stated) | 80.1 µM | 187 µM
17 | COC(=O)C(O)CNc1ccc(C(F)(F)F)cn1 (configuration not stated) | > 501 µM | > 501 µM
18 | CCc1ncc(-c2cn(CCSc3ncn[nH]3)nn2)cn1 | > 50.1 µM | > 50.1 µM
19 | O=S1(=O)CCCN(Cc2ccc(Br)c(F)c2)CC1 | 242 µM | 386 µM
20 | CN(Cc1ccc(O)cc1)C(=O)c1cc(Cl)c[nH]1 | 187 µM | 173 µM
21 | CC(C)NC(=O)c1ccc(N2CCCCC2=O)cc1 | > 501 µM | > 501 µM
22 | COc1cc(N2CCNCC2)ccc1F | > 501 µM | 281 µM
23 | O=C(Cc1cccnc1)NCCNc1cccc(Br)c1 | > 501 µM | 143 µM
24 | CN(C)C(C)(C)CNC(=O)NCCC1CCCCO1 (configuration not stated) | > 501 µM | > 501 µM
25 | COc1cccc(C(=O)Nc2ccnn2C(C)C)c1 | > 501 µM | 259 µM
26 | CC(=O)NCc1ccc(C(=O)NC2CCc3nc(C)cn3C2)o1 (configuration not stated) | > 50.1 µM | > 50.1 µM

Row | SMILES | IC50 [1] | IC50 [2]
27 | CCC(CO)NC(=O)C1(c2ccc(F)cc2F)CCC1 (configuration not stated) | > 501 µM | 313 µM
28 | Cc1ccc(-c2noc(CN3CC(n4cc(C)cn4)C3)n2)cc1 | 22.6 µM | 49.1 µM
29 | COc1ncccc1CN(C)S(=O)(=O)c1cccs1 | 286 µM | 159 µM
30 | COc1cccc(-n2nnc(C(=O)NC3CC3)c2C)c1 | 209 µM | 232 µM
31 | CCN(CC)C(=O)CN1CCC2(C=Cc3cc(Cl)c(C)cc3O2)CC1 | > 50.1 µM | 31.4 µM
32 | C=C(C)CSc1nnnn1Cc1ccco1 | 55.3 µM | 51.6 µM
33 | O=C(COC(=O)c1cccs1)c1ccc[nH]1 | 211 µM | 429 µM
34 | Cc1occc1C(=O)NCC(CO)Cc1cccs1 (configuration not stated) | > 501 µM | > 501 µM
35 | CC(C)(C)n1cc(NC(=O)C2CN(Cc3ccccc3)CCO2)cn1 (configuration not stated) | > 50.1 µM | > 50.1 µM
36 | CCc1cccc2c1N(C(=O)[C@@H](N)CC)CC2 | > 501 µM | 244 µM
37 | COc1ccc(CN2CC[C@@H](O)[C@@H]2Cc2cnn(C)c2)cc1 | > 50.1 µM | > 50.1 µM
38 | O=c1c(Cc2ccccc2)c(O)ccn1Cc1cccs1 | > 50.1 µM | > 50.1 µM
39 | CN(Cc1ccsc1)C(=O)CNC(=O)c1ccc(Br)o1 | 164 µM | 138 µM
40 | CC(C)CCNC(=O)CCn1cc(Br)ccc1=O | 105 µM | 142 µM
41 | CC1CN(C(=O)c2cnsn2)c2cccc(Cl)c2O1 (configuration not stated) | > 501 µM | 67.6 µM
42 | CCS(=O)(=O)N(C)C(=O)CCc1c[nH]c2ccccc12 | 97.3 µM | 44.8 µM
43 | Cc1ccc(C(=O)NCc2ccnc(N(C)C)c2)s1 | > 501 µM | 273 µM
44 | Cc1ccc(-n2nnnc2NC2CC2)cc1 | > 501 µM | 263 µM
45 | Cc1ccc(NCc2ncc(C(C)(C)C)o2)c(Cl)c1 | 9.14 µM | 8.32 µM
46 | CNC(=O)CCSc1ccc2c(c1)OCCO2 | 165 µM | 143 µM
47 | CC[C@@H](CO)NC(=O)NCC(C)c1ccsc1 (some centres not stated) | 495 µM | 483 µM
48 | CCc1nc(CNc2ccc(C#N)nc2)cs1 | 96.8 µM | 113 µM
49 | Cc1cc(Cl)ccc1NC(=O)CN1CCN(C)CC1 | > 501 µM | > 501 µM
50 | OCC(O)CSCc1nc(-c2ccc(Cl)cc2)no1 (configuration not stated) | 260 µM | 385 µM
51 | COc1cc(C(=O)NCCc2ccc(Cl)cc2)on1 | > 50.1 µM | 4.56 µM
52 | CN1CCN(c2ccnc(SCC(N)=O)n2)CC1 | > 501 µM | 289 µM

Row | SMILES | IC50 [1] | IC50 [2]
53 | CSC1=Nc2c(cnn2-c2cccc(Cl)c2)C2=NCCCN12 | 28.3 µM | 5.78 µM
54 | NCCC1CN(Cc2cc3ccccc3s2)CCO1 (configuration not stated) | 332 µM | 308 µM
55 | Fc1ccc2nc(N3CCCNCC3)oc2c1F | 122 µM | 51.6 µM
56 | O=C(NCCc1c[nH]c2ccc(F)cc12)C1(n2cnnn2)CCCCC1 | 28 µM | 46.3 µM
57 | CN1CCC(NC(=O)c2coc(Br)c2)CC1=O (configuration not stated) | > 501 µM | > 501 µM
58 | NC1(c2nc(C3CC3)cc(=O)[nH]2)CCCC1 | > 501 µM | 304 µM
59 | CN(C)CCOc1ccccc1CN | > 501 µM | > 501 µM
60 | CN(Cc1ccco1)C(=O)CN1CCc2sccc2C1 | 89.2 µM | 60 µM
61 | O=c1c2cc3c(cc2nnn1Cc1ccccc1Cl)OCCO3 | > 50.1 µM | > 50.1 µM
62 | CC(C)c1nnc(CN2CC(n3cccn3)Cc3ccccc32)o1 (configuration not stated) | > 50.1 µM | > 50.1 µM
63 | CCc1nc(CNc2ccc(F)cc2I)no1 | 2.44 µM | 3.04 µM
64 | Cc1cccc(NC(=O)NCc2c(C)noc2C)n1 | > 501 µM | 238 µM
65 | COC(=O)C(NC(=O)c1ccc(N(C)C)nc1)c1ccccc1 (configuration not stated) | 10.2 µM | 33.2 µM
66 | COc1cc(CNC(=O)Nc2ccnc(C)c2)ccn1 | 98.2 µM | 100 µM
67 | O=C(NCC1CC1)c1nnc2ccc(Cl)cc2n1 | 11.4 µM | 5.59 µM
68 | O=C(CNc1ccc(Br)cc1)NCc1ncc[nH]1 | > 501 µM | 228 µM
69 | COCCN1C[C@@H]2CN(c3cc(OC)ncn3)CCC[C@]2(C(=O)O)C1 | > 50.1 µM | > 50.1 µM
70 | CC(C)N1[C@H](CN2CCCC2)C[C@@H]2CN(Cc3ccoc3)CC[C@@H]21 | > 50.1 µM | > 50.1 µM
71 | N[C@@H]1CC[C@@H](NC(=O)c2cc3sccc3[nH]2)C1 | > 501 µM | 167 µM
72 | CS(=O)(=O)Cc1ccccc1NCc1ccsc1 | > 501 µM | 220 µM
73 | CNCC(=O)Nc1cc(Cl)c(OCCOC)c(Cl)c1 | > 501 µM | > 501 µM
74 | COc1cccc(-c2noc3c2CN(c2nc(C)ncc2C)CC3)c1 | 34.5 µM | 3.39 µM
75 | Clc1cccc2nc(N3CCNCC3)oc12 | 349 µM | 144 µM
76 | COC(=O)COn1c(SC(C)C)nc2ccccc2c1=O | > 50.1 µM | 43.2 µM
